# Measured values from PubChem BioAssay (NCI).
# Values joined by “and” are separate entries in the source; they are usually repeats but may differ in a detail not shown here. Identical values can stand only once.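 Briefly, cells in 96-well plates were exposed to five compound concentrations for 48 h, and endpoints were estimated by linear interpolation. GI50 marks 50% less growth. TGI marks complete inhibition of growth.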
# Columns and labels:
# Assay in all cases: inhibition of tumour cell growth, NCI panel, 48 h
# SN12C renal = test system: SN12C renal
# SK-MEL-2 melanoma = test system: SK-MEL-2 melanoma
# HOP-62 NSCLC = test system: HOP-62 NSCLC
# RXF 393 renal = test system: RXF 393 renal
# HT29 colon = test system: HT29 colon
# KM12 colon = test system: KM12 colon
# HCT-116 colon = test system: HCT-116 colon
# CCRF-CEM leukemia = test system: CCRF-CEM leukemia
# CAKI-1 renal = test system: CAKI-1 renal
# RPMI-8226 leukemia = test system: RPMI-8226 leukemia
Structure (SMILES),TGI (SN12C renal),TGI (SK-MEL-2 melanoma),TGI (HOP-62 NSCLC),TGI (RXF 393 renal),TGI (HT29 colon),TGI (KM12 colon),TGI (HCT-116 colon),TGI (CCRF-CEM leukemia),TGI (CAKI-1 renal),TGI (RPMI-8226 leukemia),GI50 (SN12C renal),GI50 (SK-MEL-2 melanoma),GI50 (HOP-62 NSCLC),GI50 (RXF 393 renal),GI50 (HT29 colon),GI50 (KM12 colon),GI50 (HCT-116 colon),GI50 (CCRF-CEM leukemia),GI50 (CAKI-1 renal) [µM],GI50 (RPMI-8226 leukemia)
CC(CCC(=O)O)C(=O)O (stereo not given),> 100 µM,> 100 µM,> 100 µM,> 100 µM,> 100 µM,> 100 µM,> 100 µM,> 100 µM,> 100 µM,> 100 µM,,,,,,,,,,
CCn1c2ccc(O)cc2c2c(C)c3c[n+](C)ccc3c(C)c21,3.03 µM,20.1 µM,21 µM,> 100 µM,> 100 µM,23.7 µM,> 100 µM,> 100 µM,> 100 µM,68 µM,0.152 µM,3.91 µM,1.18 µM,5.58 µM,13.2 µM,2 µM,4.55 µM,5.7 µM,65.2,7.43 µM
Nc1ccccc1C#C/C=C\C#Cc1ccccc1,29.7 µM,98.3 µM,33.6 µM,> 100 µM,44.8 µM,20.2 µM,28.6 µM,29.9 µM,8.35 µM,10.7 µM,13.4 µM,25.5 µM,15 µM,29.9 µM,21.1 µM,4.51 µM,14.1 µM,0.804 µM,1.44,1.26 µM
O=C(O)c1ccc2c(c1)CCCC(c1ccc(Cl)cc1Cl)=C2c1ccc(O[C@H]2CCN(CCCF)C2)cc1,31 µM,30.6 µM,33.6 µM,17 µM,28.1 µM,20.3 µM,21.7 µM,27.6 µM,24 µM,27.5 µM,15.2 µM,14.3 µM,15 µM,3.38 µM,11.9 µM,7.29 µM,7.98 µM,10.8 µM,11.5,6.99 µM
COc1cc2ncnc(Nc3ccc(F)c(Cl)c3)c2cc1NC(=O)/C=C/CN1CCCCC1,3.35 µM and 2.3 µM,3.52 µM and 3.39 µM,5.65 µM and > 9.66 µM,2.55 µM and 2.94 µM,3.59 µM and > 7.79 µM,4.88 µM and > 9.06 µM,3.1 µM and 3.54 µM,5.7 µM and 8 µM,2.81 µM and 3.43 µM,5.11 µM and 4.99 µM,0.429 µM and 0.389 µM,1.81 µM and 1.72 µM,2.11 µM and 3.02 µM,0.919 µM and 0.89 µM,1.68 µM and 2.08 µM,2.17 µM and 2.78 µM,1.45 µM and 1.54 µM,1.01 µM and 2.03 µM,,1.95 µM and 1.93 µM
Cn1c2c(c3ccc(Cl)c(Cl)c31)C(C#N)C1(CCNCC1)NC2=O (stereo not given),12.6 µM,4.73 µM,3.93 µM,5.79 µM,,3.03 µM,2.92 µM,4.72 µM,1.75 µM,3.87 µM,2.51 µM,2.12 µM,1.47 µM,1.52 µM,2.02 µM,1.6 µM,1.39 µM,1.93 µM,0.384,1.7 µM
Cc1sc2nc3c4ccccc4c(NCCCN(C)C)nn3c(=O)c2c1C,21.7 µM,39.7 µM,25.3 µM,19.8 µM,3.36 µM,17.7 µM,12.7 µM,17.2 µM,23.5 µM,11.7 µM,5.14 µM,20 µM,12.3 µM,5.2 µM,1.52 µM,4.84 µM,4.03 µM,6.13 µM,8.87,4.8 µM
C/C=C1\NC(=O)[C@H]2CSSCCC=C[C@H](CC(=O)N[C@H](C(C)C)C(=O)N2)OC(=O)[C@H](C(C)C)NC1=O,,,,0.0101 µM and 0.00253 µM,< 0.01 µM and 0.0116 µM and 0.0262 µM,,< 0.01 µM and 0.0145 µM and 0.0193 µM,0.273 µM and 0.0534 µM and 0.102 µM,0.0772 µM and 0.0244 µM and < 0.0104 µM,,< 0.01 µM,< 0.01 µM and 9.54e-05 µM,< 0.01 µM,< 0.01 µM,< 0.01 µM,< 0.01 µM,< 0.01 µM,< 0.01 µM,< 0.0339,< 0.01 µM
CN(C)/N=C(/c1nc2ccc(Cl)cc2[nH]c1=O)C(O)c1ccc(C(O)/C(=N\N(C)C)c2nc3ccc(Cl)cc3[nH]c2=O)cc1 (stereo not given),> 100 µM,> 100 µM,> 100 µM,> 100 µM,> 100 µM,> 100 µM,> 100 µM,> 100 µM,> 100 µM,> 100 µM,,,,,,,,,,
COC(=O)C(CC(=O)Nc1ccc(C)cc1)C(=O)C(=O)Nc1ccccc1C(C)C (stereo not given),> 100 µM,> 100 µM,> 100 µM,> 100 µM,> 100 µM,> 100 µM,> 100 µM,> 100 µM,> 100 µM,> 100 µM,,,,,,,,,,
CC1=C(C(=O)Nc2cccc(Cl)c2)C(c2ccccc2F)C(C(=O)Nc2cccc(Cl)c2)=C(C)N1,23 µM,27.1 µM,31.3 µM,22.4 µM,15.5 µM,21 µM,,26.2 µM,35.9 µM,11.1 µM,,,,,,,,,,
CCC[n+]1cc2cc(OC)c(OC)cc2c2c1-c1cc3c(cc1C2)OCO3,6.84 µM,9.18 µM,19.7 µM,35.7 µM,> 34.6 µM,7.03 µM,23.6 µM,,44.2 µM,16 µM,0.638 µM,2.65 µM,3.92 µM,17 µM,5.03 µM,2.12 µM,3.39 µM,2.53 µM,7.14,2.34 µM
COc1ccc2[nH]c(O)c(C(=Nc3ccc(N(C)C(=O)CN4CCN(C)CC4)cc3)c3ccccc3)c2c1,10.4 µM,5.37 µM,12.3 µM,2.36 µM,10.8 µM,10.5 µM,8.37 µM,10.4 µM,5.92 µM,7.53 µM,0.74 µM,2.12 µM,1.12 µM,1.04 µM,0.341 µM,0.0197 µM,0.562 µM,2.68 µM,0.847,2.5 µM
C/C=C/C=C/C=C/C=C/C(=O)O,> 100 µM,> 100 µM,> 100 µM,> 100 µM,> 100 µM,> 100 µM,> 100 µM,> 100 µM,> 100 µM,> 100 µM,,,,,,,,,,
CN(C)CC1CCC/C1=N\O (stereo not given),> 100 µM,> 100 µM,> 100 µM,> 100 µM,> 100 µM,,> 100 µM,> 100 µM,> 100 µM,> 100 µM,,,,,,,,,,
